# Assay: Solubility by the shake-flask method
# Conditions: Table 2: Solubility test of Fe28 clusters (acid linkers; Fe28+Tartaric acid with Ba, Ca, Mg counterions); conditions not given separately
# Protocol: Solubility was determined by the shake-flask method (table 1) at room temperature (25 °C, pH = 5.7 in 0.3 M of Na2SO4).
row,Solubility,Substance
1,84 mM,Ba10[Fe28(µ3-O)8(tart)16(OAc)24] ×H2O [Ba10Fe28]
2,2 mM,Ca10[Fe28(µ3-O)8(tart)16(OAc)24] ×H2O [Ca10Fe28]
3,1 mM,Mq10[Fe28(µ3-O)8(tart)16(OAc)24] ×H2O [Mg10Fe28]

# Same assay, conditions: shake-flask method, room temperature (25 °C, pH = 5.7 in 0.3 M of Na2SO4); Table 1, influence of the cation
row,Solubility,Substance
1,50 mM,K20[Fe28(µ3-O)8(tart)16(OAc)24] ×H2O [Cluster K20Fe28]
2,83 mM,Li2Na18[Fe28(µ3-O)8(tart)16(OAc)24] ×H2O [Li2Na18Fe28]
3,70 mM,Na20[Fe28(µ3-O)8(tart)16(OAc)24] ×H2O [Na20Fe28]
4,48 mM,Li2K18[Fe28(µ3-O)8(tart)16(OAc)24] ×H2O [Li2K18Fe28]
5,88 mM,K2Li18[Fe28(µ3-O)8(tart)16(OAc)24] ×H2O [Cluster K2Li28Fe28]

# From patent publication EP4545542A1, “TRANSITION METAL CLUSTER COMPOUNDS FOR ELECTROCHEMICAL APPLICATIONS” (Litricity GmbH, priority 2023, dated 2025)
